The results in this text go back to patent publication US20040014738A1 (priority 2000, published 2004).

The subject of series [1] is CD34-positive cells (stem cells). The experiment in a line: Viability of the stem cells after photodynamic treatment. The series is classed as cell-based. Particulars: 25 μM sensitizer, illumination 1 hour, vs control (no illumination, no sensitizer) (FIG. 2). The protocol:
(§1) The following parameters were measured:
Viability of the stem cells.

In series [2] the test system is Pseudomonas aeruginosa. Kind of series: Photodynamic inactivation of Pseudomonas aeruginosa in stem cell-containing solution. The series is classed as cell-based. To be noted: 25 μM sensitizer, light >600 nm, 35 mW/cm^2, about 10^5 bacteria/ml in stem cell solution (FIG. 1). The protocol: Photodynamic Treatment of Stem Cell-Containing Solution Contaminated with Pseudomonas
as §1
Inactivation of P. aeruginosa; and […]

In series [3] the test system is stem cells from umbilical cord blood.
Procedure: Stem cells were isolated from fresh umbilical cord blood using hydroxy ethylstarch (HES) sedimentation (Perutelli P. et al, Vox Sang. 76(4) pp 237-40 (1999); Adorno G. et al, Clin. Lab. Haematol. 20(6) pp 341-3 (1998)). The resulting solution contained 20*10^6 cells/ml, as determined using an automatic cell counter (Sysmex K1000, TOA Medical Electronics, Kobe, Japan).
Stock solutions of Pseudomonas aeruginosa were added to the stem cell solution such that the volume of the spike was <10% of the total volume of the solution, and the number of bacteria was about 10^5/ml. A sensitizer, monophenyl-tri(N-methyl-4-pyridyl)porphyrin chloride (TriP(4), Mid-Century, Posen, Ill. USA), was added to a final concentration of 25 μM. The suspension were thoroughly mixed and divided into 3-ml aliquots in polystyrene culture dishes with a diameter of 6 cm (Greiner, Alphen a/d Rijn, the Netherlands), and agitated at room temperature on a horizontal reciprocal shaker (60 cycles/min, GFL, Burgwedel, Germany) for 5 min. in the dark. […] The irradiance at the cell layer was 35 mW/cm^2, as measured with an IL1400A photometer equipped with a SEL033 detector (International Light, Newburyport, Mass. USA). The following parameters were measured:
Influence of the treatment on stem cell differentiation (as measured by cfu-e, bfu-e, cfu-m, cfu-gm, and cfu-gem). […]

For `C[n+]1ccc(-c2c3nc(c(-c4cc[n+](C)cc4)c4ccc([nH]4)c(-c4cc[n+](C)cc4)c4nc(c(-c5ccccc5)c5ccc2[nH]5)C=C4)C=C3)cc1.[Cl-].[Cl-].[Cl-]` [TriP(4), monophenyl-tri(N-methyl-4-pyridyl)porphyrin chloride], the “viability of CD34-positive cells (stem cells)” value in series [1] is given as “remains within the error margin for the control experiment”. In series [2], the “Inactivation of P. aeruginosa” value is given as “effectively killed”. Besides, in series [3], the “CFU-Mk, PDT (60′)” value was found to be 38.
